Test results taken from ChEMBL document CHEMBL4715916, “Synthesis and biological evaluation of a ring analogs of the selective CB2 inverse agonist SMM-189” (Bioorg Med Chem, 2021).
Calls of active or inactive are those of the source. No cut-off for these calls is given here.

Each compound was assayed against T1, Cannabinoid receptor 1 (Homo sapiens, UniProt P21554) (assay: Displacement of [3H]-CP55940 from human recombinant cannabinoid CB1 receptor expressed in HEK cell membranes incubated for 1.5 hrs by liquid scintillation counting method). Settings: not given.
T1 sequence (P21554 whole entry): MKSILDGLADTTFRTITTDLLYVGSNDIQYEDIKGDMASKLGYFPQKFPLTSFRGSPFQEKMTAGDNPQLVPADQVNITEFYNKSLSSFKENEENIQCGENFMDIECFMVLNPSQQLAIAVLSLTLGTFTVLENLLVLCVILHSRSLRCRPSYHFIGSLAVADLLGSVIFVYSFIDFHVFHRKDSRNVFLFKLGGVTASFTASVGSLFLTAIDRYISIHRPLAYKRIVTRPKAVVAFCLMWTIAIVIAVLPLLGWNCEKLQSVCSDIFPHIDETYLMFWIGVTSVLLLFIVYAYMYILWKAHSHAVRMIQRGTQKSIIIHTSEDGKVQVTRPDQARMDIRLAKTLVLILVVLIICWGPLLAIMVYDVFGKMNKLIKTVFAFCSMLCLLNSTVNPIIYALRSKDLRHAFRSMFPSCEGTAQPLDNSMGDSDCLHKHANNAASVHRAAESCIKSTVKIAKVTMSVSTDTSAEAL
Design: species or system Cell membrane
For O=C(c1cc(O)c(-c2cc(C(F)(F)F)cc(C(F)(F)F)c2)c(O)c1)c1cccs1, the Ki was 3740 nM.
With O=C(c1ccccc1)c1cc(O)c(-c2ccsc2)c(O)c1 the Ki was > 10000 nM.
Cc1cccc(-c2c(O)cc(C(=O)c3ccccc3)cc2O)c1 gave a Ki of 4010 nM.
With O=C(c1cc(O)c(-c2cccc(C(F)(F)F)c2)c(O)c1)c1cccs1 the Ki was > 10000 nM.
For O=C(c1ccccc1)c1cc(O)c(-c2ccnc(F)c2)c(O)c1, the Ki was > 10000 nM.

Each compound was assayed against T2, Cannabinoid receptor 2 (Homo sapiens, UniProt P34972) (assay: Inverse agonist activity at human recombinant cannabinoid CB2 receptor expressed in HEK cells transfected with CNG assessed as increase in cAMP level measured up to 1 hr by ACTOne membrane potential dye based assay). Settings: not given.
T2 sequence (P34972 whole entry): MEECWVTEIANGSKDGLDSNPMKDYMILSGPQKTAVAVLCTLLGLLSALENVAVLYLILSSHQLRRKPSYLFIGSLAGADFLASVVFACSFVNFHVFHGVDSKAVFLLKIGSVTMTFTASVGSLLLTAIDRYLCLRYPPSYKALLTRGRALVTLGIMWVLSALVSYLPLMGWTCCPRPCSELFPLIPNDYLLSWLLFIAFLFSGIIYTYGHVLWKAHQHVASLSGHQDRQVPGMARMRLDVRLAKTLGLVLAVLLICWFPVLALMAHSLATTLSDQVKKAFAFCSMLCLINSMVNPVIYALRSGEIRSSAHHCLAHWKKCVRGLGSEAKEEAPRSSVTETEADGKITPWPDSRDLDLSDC
Assay type: functional, cell-based
Work on O=C(c1cc(O)c(-c2cc(C(F)(F)F)cc(C(F)(F)F)c2)c(O)c1)c1cccs1 yielded an EC50 of 676 nM.
Compound Cc1cccc(-c2c(O)cc(C(=O)c3ccccc3)cc2O)c1 has an EC50 of 1660 nM.
Work on O=C(c1cc(O)c(-c2cccc(C(F)(F)F)c2)c(O)c1)c1cccs1 yielded an EC50 of 38.9 nM.

Same assay, conditions: time hrs <=1
In the case of O=C(c1ccccc1)c1cc(O)c(-c2ccsc2)c(O)c1, the pEC50 is reported as “inactive”.
With O=C(c1ccccc1)c1cc(O)c(-c2ccnc(F)c2)c(O)c1 the pEC50 was “inactive”.

The compounds below were run on IMhu (assay: Effect on LPS-stimulated microglia polarization in human IMhu cells assessed as decrease in CD68 expression at 35 uM after 24 hrs by cell polarization assay). Settings: not given.
Assay type: functional, cell-based
For O=C(c1cc(O)c(-c2cccc(C(F)(F)F)c2)c(O)c1)c1cccs1, the Activity was “Active”.

These compounds were tested against T1, Cannabinoid receptor 1 (assay: Inverse agonist activity at cannabinoid CB1 receptor in human U2OS cells assessed as induction of beta-arrestin recruitment using CCF4/AM as substrate preincubated for 5 hrs followed by substrate addition and measured after 2 hrs by Tango assay). Settings: time 7.0 hrs.
Assay type: cell-based
O=C(c1cc(O)c(-c2cc(C(F)(F)F)cc(C(F)(F)F)c2)c(O)c1)c1cccs1 was tested, and the pEC50 was “inactive”.
For Cc1cccc(-c2c(O)cc(C(=O)c3ccccc3)cc2O)c1, the pEC50 was “inactive”.
O=C(c1cc(O)c(-c2cccc(C(F)(F)F)c2)c(O)c1)c1cccs1 was tested, and the pEC50 was “inactive”.

Each compound was assayed on IMhu (assay: Induction of morphological changes in LPS-induced human IMhu cells assessed as small cell body at 10 uM after 24 hrs by DAPI/Phalloidin staining based fluorescence microscopic analysis). Settings: not given.
Assay type: functional
O=C(c1cc(O)c(-c2cccc(C(F)(F)F)c2)c(O)c1)c1cccs1 was tested, and the Activity was “Active”.

Organism: Homo sapiens
Test: Selectivity ratio of Ki for displacement of [3H]-CP55940 from human recombinant cannabinoid CB1 receptor expressed in HEK cell membranes to displacement of [3H]-CP55940 from human recombinant cannabinoid CB2 receptor expressed in HEK cell membranes
Settings: not given
O=C(c1cc(O)c(-c2cc(C(F)(F)F)cc(C(F)(F)F)c2)c(O)c1)c1cccs1 was tested, and the Ratio Ki was 20.
Cc1cccc(-c2c(O)cc(C(=O)c3ccccc3)cc2O)c1 gave a Ratio Ki of 12.6.
In the case of O=C(c1cc(O)c(-c2cccc(C(F)(F)F)c2)c(O)c1)c1cccs1, the Ratio Ki is reported as > 64.9.

What follows are compounds tested on IMhu (assay: Induction of morphological changes in LPS-induced human IMhu cells assessed as ramified cell at 10 uM after 24 hrs by DAPI/Phalloidin staining based fluorescence microscopic analysis). Settings: not given.
Assay type: functional
In the case of O=C(c1cc(O)c(-c2cccc(C(F)(F)F)c2)c(O)c1)c1cccs1, the Activity is reported as “Active”.

These compounds were tested on C8-B4 (assay: Effect on LPS-stimulated microglia polarization in mouse C8-B4 cells assessed as decrease in CD16/32 expression at 20 uM after 24 hrs by cell polarization assay). Settings: not given.
Assay type: functional, cell-based
In the case of O=C(c1cc(O)c(-c2cccc(C(F)(F)F)c2)c(O)c1)c1cccs1, the Activity is reported as “Active”.

What follows are compounds tested against T2, Cannabinoid receptor 2 (assay: Displacement of [3H]-CP55940 from human recombinant cannabinoid CB2 receptor expressed in HEK cell membranes incubated for 1.5 hrs by liquid scintillation counting method). Settings: not given.
Design: species or system Cell membrane
With O=C(c1cc(O)c(-c2cc(C(F)(F)F)cc(C(F)(F)F)c2)c(O)c1)c1cccs1 the Ki was 187 nM.
O=C(c1ccccc1)c1cc(O)c(-c2ccsc2)c(O)c1 was tested, and the Ki was > 10000 nM.
Cc1cccc(-c2c(O)cc(C(=O)c3ccccc3)cc2O)c1 showed a Ki of 320 nM.
With O=C(c1cc(O)c(-c2cccc(C(F)(F)F)c2)c(O)c1)c1cccs1 the Ki was 154 nM.
For O=C(c1ccccc1)c1cc(O)c(-c2ccnc(F)c2)c(O)c1, the Ki was > 10000 nM.

The compounds below were run on C8-B4 (assay: Effect on LPS-stimulated microglia polarization in mouse C8-B4 cells assessed as increase in CD204 expression at 20 uM after 24 hrs by cell polarization assay). Settings: not given.
Assay type: functional, cell-based
For O=C(c1cc(O)c(-c2cccc(C(F)(F)F)c2)c(O)c1)c1cccs1, the Activity was “Active”.

Each compound was assayed on IMhu (assay: Inhibition of cell migration in LPS-induced human IMhu cells at 10 uM after 24 hrs by scratch assay). Settings: not given.
Assay type: functional
With O=C(c1cc(O)c(-c2cccc(C(F)(F)F)c2)c(O)c1)c1cccs1 the inhibition was “Active”.

These compounds were tested against T2, Cannabinoid receptor 2 (assay: Inverse agonist activity at cannabinoid CB2 receptor in human U2OS cells assessed as induction of beta-arrestin recruitment using CCF4/AM as substrate preincubated for 5 hrs followed by substrate addition and measured after 2 hrs by Tango assay). Settings: not given.
Assay type: cell-based
Work on O=C(c1cc(O)c(-c2cc(C(F)(F)F)cc(C(F)(F)F)c2)c(O)c1)c1cccs1 yielded an EC50 of 1290 nM.
With Cc1cccc(-c2c(O)cc(C(=O)c3ccccc3)cc2O)c1 the EC50 was > 10000 nM.
In the case of O=C(c1cc(O)c(-c2cccc(C(F)(F)F)c2)c(O)c1)c1cccs1, the EC50 is reported as 8510 nM.

These compounds were tested on IMhu (assay: Cytoprotective activity in human IMhu cells assessed as reduction in LPS-induced ROS generation at 10 uM after 50 to 1440 mins by fluorescence based assay). Settings: time 50-1440 min.
Assay type: functional, cell-based
For O=C(c1cc(O)c(-c2cccc(C(F)(F)F)c2)c(O)c1)c1cccs1, the Activity was “Active”.

These compounds were tested against T1, Cannabinoid receptor 1 (assay: Inverse agonist activity at human recombinant cannabinoid CB1 receptor expressed in HEK cells transfected with CNG assessed as increase in cAMP level measured up to 1 hr by ACTOne membrane potential dye based assay relative to control). Settings: time hrs <=1.
Assay type: functional, cell-based
In the case of O=C(c1cc(O)c(-c2cc(C(F)(F)F)cc(C(F)(F)F)c2)c(O)c1)c1cccs1, the Emax is reported as “inactive”.
With O=C(c1ccccc1)c1cc(O)c(-c2ccsc2)c(O)c1 the Emax was “inactive”.
With Cc1cccc(-c2c(O)cc(C(=O)c3ccccc3)cc2O)c1 the Emax was “inactive”.
In the case of O=C(c1cc(O)c(-c2cccc(C(F)(F)F)c2)c(O)c1)c1cccs1, the Emax is reported as “inactive”.
In the case of O=C(c1ccccc1)c1cc(O)c(-c2ccnc(F)c2)c(O)c1, the Emax is reported as “inactive”.

These compounds were tested on IMhu (assay: Effect on LPS-stimulated microglia polarization in human IMhu cells assessed as increase in CD206 expression at 35 uM after 24 hrs by cell polarization assay). Settings: not given.
Assay type: functional, cell-based
For O=C(c1cc(O)c(-c2cccc(C(F)(F)F)c2)c(O)c1)c1cccs1, the Activity was “Active”.

Each compound was assayed against T1, Cannabinoid receptor 1 (assay: Inverse agonist activity at cannabinoid CB1 receptor in human U2OS cells assessed as emission ratio using CCF4/AM as substrate preincubated for 5 hrs followed by substrate addition and measured after 2 hrs by Tango assay). Settings: time 7.0 hrs.
Assay type: cell-based
In the case of O=C(c1cc(O)c(-c2cc(C(F)(F)F)cc(C(F)(F)F)c2)c(O)c1)c1cccs1, the Ratio is reported as “inactive”.
Cc1cccc(-c2c(O)cc(C(=O)c3ccccc3)cc2O)c1 was tested, and the Ratio was “inactive”.
With O=C(c1cc(O)c(-c2cccc(C(F)(F)F)c2)c(O)c1)c1cccs1 the Ratio was “inactive”.

Each compound was assayed against T1, Cannabinoid receptor 1 (assay: Inverse agonist activity at human recombinant cannabinoid CB1 receptor expressed in HEK cells transfected with CNG assessed as increase in cAMP level measured up to 1 hr by ACTOne membrane potential dye based assay). Settings: time hrs <=1.
Assay type: functional, cell-based
For O=C(c1cc(O)c(-c2cc(C(F)(F)F)cc(C(F)(F)F)c2)c(O)c1)c1cccs1, the pEC50 was “inactive”.
For O=C(c1ccccc1)c1cc(O)c(-c2ccsc2)c(O)c1, the pEC50 was “inactive”.
With Cc1cccc(-c2c(O)cc(C(=O)c3ccccc3)cc2O)c1 the pEC50 was “inactive”.
For O=C(c1cc(O)c(-c2cccc(C(F)(F)F)c2)c(O)c1)c1cccs1, the pEC50 was “inactive”.
In the case of O=C(c1ccccc1)c1cc(O)c(-c2ccnc(F)c2)c(O)c1, the pEC50 is reported as “inactive”.

Each compound was assayed on C8-B4 (assay: Effect on LPS-stimulated microglia polarization in mouse C8-B4 cells assessed as increase in CD206 expression at 20 uM after 24 hrs by cell polarization assay). Settings: not given.
Assay type: functional, cell-based
O=C(c1cc(O)c(-c2cccc(C(F)(F)F)c2)c(O)c1)c1cccs1 was tested, and the Activity was “Active”.

Each compound was assayed on IMhu (assay: Induction of morphological changes in LPS-induced human IMhu cells assessed as elongated projection formation at 10 uM after 24 hrs by DAPI/Phalloidin staining based fluorescence microscopic analysis). Settings: not given.
Assay type: functional
For O=C(c1cc(O)c(-c2cccc(C(F)(F)F)c2)c(O)c1)c1cccs1, the Activity was “Active”.

The compounds below were run against T2, Cannabinoid receptor 2 (assay: Inverse agonist activity at cannabinoid CB2 receptor in human U2OS cells assessed as emission ratio using CCF4/AM as substrate preincubated for 5 hrs followed by substrate addition and measured after 2 hrs by Tango assay). Settings: filed as inverse agonist, time 7.0 hrs.
Assay type: cell-based
With O=C(c1cc(O)c(-c2cc(C(F)(F)F)cc(C(F)(F)F)c2)c(O)c1)c1cccs1 the Ratio was 0.94.
With Cc1cccc(-c2c(O)cc(C(=O)c3ccccc3)cc2O)c1 the Ratio was 2.3.
Compound O=C(c1cc(O)c(-c2cccc(C(F)(F)F)c2)c(O)c1)c1cccs1 has a Ratio of 1.19.

What follows are compounds tested on C8-B4 (assay: Effect on LPS-stimulated microglia polarization in mouse C8-B4 cells assessed as decrease in CD68 expression at 20 uM after 24 hrs by cell polarization assay). Settings: not given.
Assay type: functional, cell-based
In the case of O=C(c1cc(O)c(-c2cccc(C(F)(F)F)c2)c(O)c1)c1cccs1, the Activity is reported as “Active”.

These compounds were tested on IMhu (assay: Effect on LPS-stimulated microglia polarization in human IMhu cells assessed as decrease in CD16 expression at 35 uM after 24 hrs by cell polarization assay). Settings: not given.
Assay type: functional, cell-based
In the case of O=C(c1cc(O)c(-c2cccc(C(F)(F)F)c2)c(O)c1)c1cccs1, the Activity is reported as “Active”.

The compounds below were run against T2, Cannabinoid receptor 2 (assay: Inverse agonist activity at human recombinant cannabinoid CB2 receptor expressed in HEK cells transfected with CNG assessed as increase in cAMP level measured up to 1 hr by ACTOne membrane potential dye based assay relative to control). Settings: filed as inverse agonist, time hrs <=1.
Assay type: functional, cell-based
With O=C(c1cc(O)c(-c2cc(C(F)(F)F)cc(C(F)(F)F)c2)c(O)c1)c1cccs1 the Emax was 49.7%.
Work on Cc1cccc(-c2c(O)cc(C(=O)c3ccccc3)cc2O)c1 yielded an Emax of 40.3%.
For O=C(c1cc(O)c(-c2cccc(C(F)(F)F)c2)c(O)c1)c1cccs1, the Emax was 57.2%.

Same assay, conditions: time hrs <=1
For O=C(c1ccccc1)c1cc(O)c(-c2ccsc2)c(O)c1, the Emax was “inactive”.
With O=C(c1ccccc1)c1cc(O)c(-c2ccnc(F)c2)c(O)c1 the Emax was “inactive”.

The compounds below were run on IMhu (assay: Effect on LPS-stimulated microglia polarization in human IMhu cells assessed as increase in CD204 expression at 35 uM after 24 hrs by cell polarization assay). Settings: not given.
Assay type: functional, cell-based
With O=C(c1cc(O)c(-c2cccc(C(F)(F)F)c2)c(O)c1)c1cccs1 the Activity was “Active”.
